A short description of series [1]: Half life in human THP1 cells at 4 mg/L. Type of series: ADME, cell-based. The note with it: THP-1 cells.
Series [2] can be described thus: Half life in mouse J774 cells at 4 mg/L. Type of series: ADME, cell-based.
The nature of series [3]: Half life in human PMNC at 4 mg/L. The series is classed as ADME.
Series [4] concerns THP-1. Description: Drug level in human THP1 cells at 50 mg/L after 2 hrs in presence of 50 uM proton inophore monesin relative to control. The series is classed as ADME, cell-based. The note with it: thp-1, 2 h.
Series [5] relates to THP-1. Description: Drug level in human THP1 cells at 250 mg/L after 2 hrs in presence of 50 uM proton inophore monesin relative to control. Type of series: ADME, cell-based. The note with it: thp-1, 2 h.
Series [6] deals with THP-1. Description: Drug level in human THP1 cells at 10 mg/L after 2 hrs in presence of 50 uM proton inophore monesin relative to control. Type of series: ADME, cell-based. The note with it: thp-1, 2 h.
Series [7] relates to THP-1. Briefly: Drug level in human THP1 cells at 50 mg/L after 30 mins at pH 6. The series is classed as ADME, cell-based. The note with it: thp-1, pH 6, 0.5 h.
In series [8] the test system is THP-1. Description: Drug level in human THP1 cells at 250 mg/L after 30 mins at pH 6. The series is classed as ADME, cell-based. The note with it: thp-1, pH 6, 0.5 h.
Series [9] has as its system THP-1. Briefly: Drug level in human THP1 cells at 50 mg/L at pH < 7 in presence of 50 uM proton inophore monesin. Type of series: ADME, cell-based.
For series [10], the system named is THP-1. Description: Drug level in human THP1 cells at 50 mg/L at pH 6.5. The series is classed as ADME, cell-based. The note with it: thp-1, pH 6.5.
Series [11] has as its system J774. Description: Drug level in mouse J774 cells at 50 mg/L at pH 6.5. Type of series: ADME, cell-based. The note with it: j774, pH 6.5.
The test system of series [12] is J774. Description: Drug level in mouse J774 cells at 50 mg/L in presence of 50 uM proton inophore monesin relative to control. Type of series: ADME, cell-based.
Series [13] relates to THP-1. Description: Ratio of drug level for cellular to extracellular region of human THP-1 cells at 10 to 50 ug/ml. Type of series: ADME, cell-based.
The nature of series [14]: Ratio of drug level for cellular to extracellular region of human PMNC cells at 10 to 50 ug/ml. Type of series: ADME, cell-based.
Series [15] relates to THP-1. Briefly: Drug level in human THP1 cells at 50 mg/L after 2 hrs in presence of < 10% fetal calf serum relative to control. The series is classed as ADME, cell-based. The note with it: thp-1, 2 h.
Series [16] deals with J774. Briefly: Drug level in mouse J774 cells at 50 mg/L after 2 hrs in presence of < 10% fetal calf serum relative to control. The series is classed as ADME, cell-based. The note with it: j774, 2 h.
The subject of series [17] is THP-1. Briefly: Drug level in human THP1 cells at 50 mg/L after 2 hrs in presence 60 mM deoxyglucose and 5 mM NaN3 relative to control. Type of series: ADME, cell-based. The note with it: thp-1, 2 h.
The test system of series [18] is THP-1. Description: Drug level in human THP1 cells at 50 mg/L after 2 hrs in presence 10 uM efflux pump inhibitor verapamil relative to control. Type of series: ADME, cell-based. The note with it: thp-1, 2 h.
Series [19] deals with THP-1. Briefly: Drug level in human THP1 cells at 50 mg/L after 2 hrs in presence 250 uM efflux pump inhibitor gemfibrozil relative to control. Type of series: ADME, cell-based. The note with it: thp-1, 2 h.
In series [20] the test system is THP-1. Briefly: Drug level in human THP1 cells at 10 mg/L at pH =< 6.5. The series is classed as ADME, cell-based.
For series [21], the system named is THP-1. Briefly: Drug level in human THP1 cells at 10 mg/L after 2 hrs in presence 10 uM efflux pump inhibitor verapamil relative to control. Type of series: ADME, cell-based. The note with it: thp-1, 2 h.
Series [22] concerns THP-1. Briefly: Drug level in human THP1 cells at 10 mg/L after 2 hrs in presence 250 uM efflux pump inhibitor gemfibrozil relative to control. The series is classed as ADME, cell-based. The note with it: thp-1, 2 h.

Regarding `CC(=O)NC[C@H]1CN(c2ccc(-c3ccc(CNCc4cnn[nH]4)cc3)c(F)c2)C(=O)O1` [RADEZOLID], the half-life at 4 mg/L in [1], in [2] and in series [3] was 6 min throughout. Besides, the Drug uptake is on record as 20% in the series with THP-1 [4]; 25% in the series on THP-1 [5]; 10% in the series with THP-1 [6]; 25% with THP-1 [7]; 25% in the series on THP-1 [8]; “Active” in the series on THP-1 [9]. Further, the Drug uptake result in the series on THP-1 [10] is on record as “Active”; in the series with J774 [11], “Active”; in the series on J774 [12], 30%; in the series with THP-1 [15], “Active”; in the series on J774 [16], “Active”; with THP-1 [17], “Active”. The Drug uptake entry with THP-1 [18] and in the series with THP-1 [19] was “Active” each time. Further, the Ratio (with THP-1 [13]; in series [14]) was 8.5 throughout.

For `CC[C@H]1OC(=O)[C@H](C)[C@@H](O[C@H]2C[C@@](C)(OC)[C@@H](O)[C@H](C)O2)[C@H](C)[C@@H](O[C@@H]2O[C@H](C)C[C@H](N(C)C)[C@H]2O)[C@](C)(O)C[C@@H](C)CN(C)[C@H](C)[C@@H](O)[C@]1(C)O` [AZITHROMYCIN], the Drug uptake in the series on THP-1 [20] is recorded as 10%. Moreover, the Ratio in the series with THP-1 [21] and with THP-1 [22] was 1.7 in each case.

With `CC(=O)NC[C@H]1CN(c2ccc(N3CCOCC3)c(F)c2)C(=O)O1` [LINEZOLID], the Drug uptake stood at 20% with THP-1 [4]; 25% in the series with THP-1 [5]; 10% with THP-1 [6]; 25% in the series on THP-1 [7]; 25% in the series on THP-1 [8].

In general, half-life refers to the time needed for the level to fall by half in the phase considered. Read a high half-life as slow loss.

For the origin of these results see ChEMBL document CHEMBL1275594, “Cellular pharmacokinetics of the novel biaryloxazolidinone radezolid in phagocytic cells: studies with macrophages and polymorphonuclear neutrophils” (Antimicrob Agents Chemother, 2010).
